In patent US7981903B2, “2-[2-{phenylamino}-1H-pyrrolo[2,3-D]pyrimidin-4-yl)amino] benzamide derivatives as IGF-1R inhibitors for the treatment of cancer” (GlaxoSmithKline LLC, priority 2007, dated 2011):

Experiments:
human IR (hIR) = molecular target: T1, human IR (hIR) (Homo sapiens, UniProt P06213); test: TR-FRET kinase assay of purified hIR; assay type: biochemical; settings: activated hIR 0.5 nM, 10 μM ATP, values given as pIC50 category
T1 construct: containing amino acid residues 979-1382 of human IR; made in house; host or cells: Sf9 cells (baculovirus), same process as hIGF1R

NCI-H929 = test: Inhibition of cell proliferation (CellTiter-Glo or InCell analyzer), NCI-H929; assay type: cell-based; settings: Homo sapiens, 72 h / 3 days, values given as IC50 category
How it was run: In one

Colo205 = test: Inhibition of cell proliferation (CellTiter-Glo or InCell analyzer), Colo205; assay type: cell-based; settings: Homo sapiens, COLO 205, 72 h / 3 days, values given as IC50 category
How it was run: In one

human IGF1R (hIGF1R) = molecular target: T2, human IGF1R (hIGF1R) (Homo sapiens, UniProt P08069); test: TR-FRET kinase assay of purified hIGF1R; assay type: biochemical; settings: activated hIGF1R 0.5 nM, 10 μM ATP, values given as pIC50 category, read-out: IGF-1R pIC50 (converted)
T2 construct: containing amino acid residues 957-1367 of human IGF1R; made in house; host or cells: Sf9 cells (baculovirus)
T2 sequence (P08069 957-1367): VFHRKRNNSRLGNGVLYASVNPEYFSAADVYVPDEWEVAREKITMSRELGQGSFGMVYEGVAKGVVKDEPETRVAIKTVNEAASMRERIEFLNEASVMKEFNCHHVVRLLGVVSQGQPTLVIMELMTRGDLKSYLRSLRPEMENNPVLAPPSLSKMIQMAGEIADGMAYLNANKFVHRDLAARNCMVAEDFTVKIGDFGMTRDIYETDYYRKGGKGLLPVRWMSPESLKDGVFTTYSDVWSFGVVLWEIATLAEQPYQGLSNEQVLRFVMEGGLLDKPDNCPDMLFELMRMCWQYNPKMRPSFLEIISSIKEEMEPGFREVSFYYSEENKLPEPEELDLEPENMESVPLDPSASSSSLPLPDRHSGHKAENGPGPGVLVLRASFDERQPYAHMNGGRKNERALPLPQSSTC

T1 sequence (P06213 979-1382): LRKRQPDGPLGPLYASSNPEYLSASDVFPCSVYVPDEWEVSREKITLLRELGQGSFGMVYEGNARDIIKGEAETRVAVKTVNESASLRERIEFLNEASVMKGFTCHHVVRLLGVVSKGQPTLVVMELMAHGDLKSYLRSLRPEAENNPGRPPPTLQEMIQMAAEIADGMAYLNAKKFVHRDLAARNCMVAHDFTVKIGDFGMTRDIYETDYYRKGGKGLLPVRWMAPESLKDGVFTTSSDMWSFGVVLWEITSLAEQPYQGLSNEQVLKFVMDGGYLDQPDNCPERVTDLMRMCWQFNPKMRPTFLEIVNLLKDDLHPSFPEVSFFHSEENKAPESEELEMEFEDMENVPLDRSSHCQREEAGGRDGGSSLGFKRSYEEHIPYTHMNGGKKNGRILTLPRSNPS

Row | SMILES | IC50 (human IR (hIR)) | IC50 (NCI-H929) | IC50 (Colo205) | IC50 (human IGF1R (hIGF1R))
1 | COc1cc2c(cc1Nc1nc(Nc3cc4ccccc4cc3C(N)=O)c3cc[nH]c3n1)N(C(=O)CN(C)C)CC2 [Example 124, 3-[(2-{[1-(N,N-dimethylglycyl)-5-(methyloxy)-2,3-dihydro-1H-indol-6-yl]amino}-1H-pyrrolo[2,3-d]pyrimidin-4-yl)amino]-2-naphthalenecarboxamide] | 0.251 to 1 nM | < 250 nM | < 250 nM | 0.251 to 1 nM
2 | CNC(=O)c1cc2ccccc2cc1Nc1nc(Nc2cc3c(cc2OC)CCN3C(=O)CN(C)C)nc2[nH]ccc12 [Example 125, 3-[(2-{[1-(N,N-dimethylglycyl)-5-(methyloxy)-2,3-dihydro-1H-indol-6-yl]amino}-1H-pyrrolo[2,3-d]pyrimidin-4-yl)amino]-N-methyl-2-naphthalenecarboxamide] | 0.251 to 1 nM | < 250 nM | 250 to 1000 nM | 0.251 to 1 nM
3 | CCN(C)CC(=O)N1CCCc2cc(OC)c(Nc3nc(Nc4cccc(F)c4C(=O)NC)c4cc[nH]c4n3)cc21 [Example 132, 2-[(2{-[1-(N-ethyl-N-methylglycyl)-6-(methyloxy)-1,2,3,4-tetrahydro-7-quinolinyl]amino}-1H-pyrrolo[2,3-d]pyrimidin-4-yl)amino]-6-fluoro-N-methylbenzamide] | 1.26 to 3.98 nM | < 250 nM | < 250 nM | 5.01 to 200 nM
4 | CCN(CC)CC(=O)N1CCc2cc(OC)c(Nc3nc(Nc4cccc(F)c4C(=O)NC)c4cc[nH]c4n3)cc21 [Example 137, 2-[(2-{[1-(N,N-diethylglycyl)-5-(methyloxy)-2,3-dihydro-1H-indol-6-yl]amino}-1H-pyrrolo[2,3-d]pyrimidin-4-yl)amino]-6-fluoro-N-methylbenzamide] | 5.01 to 158 nM | < 250 nM | 250 to 1000 nM | 5.01 to 200 nM
5 | CCNC(=O)c1c(F)cc(F)cc1Nc1nc(Nc2cc3c(cc2OC)CCN3C(=O)CN(C)C)nc2[nH]ccc12 [Example 151, 2-[(2-{[1-(N,N-dimethylglycyl)-5-(methyloxy)-2,3-dihydro-1H-indol-6-yl]amino}-1H-pyrrolo[2,3-d]pyrimidin-4-yl)amino]-N-ethyl-4,6-difluorobenzamide] | 0.251 to 1 nM | 250 to 1000 nM | 250 to 1000 nM | 0.251 to 1 nM
6 | CCCNC(=O)c1c(F)cc(F)cc1Nc1nc(Nc2cc3c(cc2OC)CCN3C(=O)CN(C)C)nc2[nH]ccc12 [Example 152, 2-[(2-{[1-(N,N-dimethylglycyl)-5-(methyloxy)-2,3-dihydro-1H-indol-6-yl]amino}-1H-pyrrolo[2,3-d]pyrimidin-4-yl)amino]-4,6-difluoro-N-propylbenzamide] | 1.26 to 3.98 nM | 250 to 1000 nM | 250 to 1000 nM | 0.251 to 1 nM
7 | COc1cc2c(cc1Nc1nc(Nc3ccc(F)c(F)c3C(=O)NC(C)C)c3cc[nH]c3n1)N(C(=O)CN(C)C)CC2 [Example 161, 6-[(2-{[1-(N,N-dimethylglycyl)-5-(methyloxy)-2,3-dihydro-1H-indol-6-yl]amino}-1H-pyrrolo[2,3-d]pyrimidin-4-yl)amino]-2,3-difluoro-N-(1-methylethyl)benzamide] | 5.01 to 158 nM | 250 to 1000 nM | > 1000 nM | 5.01 to 200 nM
8 | COc1cc2c(cc1Nc1nc(Nc3cc(Cl)cc(F)c3C(N)=O)c3cc[nH]c3n1)N(C(=O)CN1CCCC1)CC2 [Example 175, 4-chloro-2-fluoro-6-[(2-{[5-(methyloxy)-1-(1-pyrrolidinylacetyl)-2,3-dihydro-1H-indol-6-yl]amino}-1H-pyrrolo[2,3-d]pyrimidin-4-yl)amino]benzamide] | 0.251 to 1 nM | < 250 nM | 250 to 1000 nM | 0.251 to 1 nM
9 | COc1cc2c(cc1Nc1nc(Nc3cc(F)cc(F)c3C(N)=O)c3cc[nH]c3n1)N(C(=O)CN(C)C)CCC2 [Example 178, 2-[(2-{[1-(N,N-dimethylglycyl)-6-(methyloxy)-1,2,3,4-tetrahydro-7-quinolinyl]amino}-1H-pyrrolo[2,3-d]pyrimidin-4-yl)amino]-4,6-difluorobenzamide] | 0.251 to 1 nM | < 250 nM | < 250 nM | 0.251 to 1 nM
10 | CNC(=O)c1c(F)cc(F)cc1Nc1nc(Nc2cc3c(cc2OC)CCCN3C(=O)CN(C)C)nc2[nH]ccc12 [Example 179, 2-[(2-{[1-(N,N-dimethylglycyl)-6-(methyloxy)-1,2,3,4-tetrahydro-7-quinolinyl]amino}-1H-pyrrolo[2,3-d]pyrimidin-4-yl)amino]-4,6-difluoro-N-methylbenzamide] | 0.251 to 1 nM | < 250 nM | < 250 nM | 0.251 to 1 nM

More lines, now with the values ahead:

Row | IC50 (human IR (hIR)) | IC50 (NCI-H929) | IC50 (Colo205) | IC50 (human IGF1R (hIGF1R)) | SMILES
11 | 1.26 to 3.98 nM | < 250 nM | 250 to 1000 nM | 5.01 to 200 nM | COc1cc2c(cc1Nc1nc(Nc3cccc(F)c3C(N)=O)c3cc[nH]c3n1)N(C(C)=O)CC2 [Example 134, 2-[(2-{[1-acetyl-5-(methyloxy)-2,3-dihydro-1H-indol-6-yl]amino}-1H-pyrrolo[2,3-d]pyrimidin-4-yl)amino]-6-fluorobenzamide]
12 | 5.01 to 158 nM | 250 to 1000 nM | > 1000 nM | 5.01 to 200 nM | CNC(=O)c1c(F)cccc1Nc1nc(Nc2cc3c(cc2OC)CCN3C(C)=O)nc2[nH]ccc12 [Example 135, 2-[(2-{[1-acetyl-5-(methyloxy)-2,3-dihydro-1H-indol-6-yl]amino}-1H-pyrrolo[2,3-d]pyrimidin-4-yl)amino]-6-fluoro-N-methylbenzamide]
13 | 5.01 to 158 nM | > 1000 nM | 250 to 1000 nM | 5.01 to 200 nM | COc1cc2c(cc1Nc1nc(Nc3cccc(F)c3C(N)=O)c3cc[nH]c3n1)NCC2 [Example 140, 2-fluoro-6-[(2-{[5-(methyloxy)-2,3-dihydro-1H-indol-6-yl]amino}-1H-pyrrolo[2,3-d]pyrimidin-4-yl)amino]benzamide]
14 | 0.251 to 1 nM | < 250 nM | 250 to 1000 nM | 0.251 to 1 nM | COc1cc2c(cc1Nc1nc(Nc3cccc(F)c3C(N)=O)c3cc[nH]c3n1)N(C(=O)CN1CCC1)CC2 [Example 143, 2-[(2-{[1-(1-azetidinylacetyl)-5-(methyloxy)-2,3-dihydro-1H-indol-6-yl]amino}-1H-pyrrolo[2,3-d]pyrimidin-4-yl)amino]-6-fluorobenzamide]
15 | 5.01 to 158 nM | 250 to 1000 nM | > 1000 nM | 5.01 to 200 nM | COc1cc2c(cc1Nc1nc(Nc3cccc(F)c3C(N)=O)c3cc[nH]c3n1)N(C(=O)CN(C)OC)CC2 [Example 144, 2-fluoro-6-[(2-{[1-[N-methyl-N-(methyloxy)glycyl]-5-(methyloxy)-2,3-dihydro-1H-indol-6-yl]amino}-1H-pyrrolo[2,3-d]pyrimidin-4-yl)amino]benzamide]
16 | 5.01 to 158 nM | > 1000 nM | > 1000 nM | 5.01 to 200 nM | COc1cc2c(cc1Nc1nc(Nc3cccc(F)c3C(N)=O)c3cc[nH]c3n1)N(C(=O)Cn1ccnc1)CC2 [Example 145, 2-fluoro-6-[(2-{[1-(1H-imidazol-1-ylacetyl)-5-(methyloxy)-2,3-dihydro-1H-indol-6-yl]amino}-1H-pyrrolo[2,3-d]pyrimidin-4-yl)amino]benzamide]
17 | 5.01 to 158 nM | 250 to 1000 nM | > 1000 nM | 5.01 to 200 nM | COc1cc2c(cc1Nc1nc(Nc3cccc(F)c3C(N)=O)c3cc[nH]c3n1)N(C(=O)N(C)C)CC2 [Example 146, 6-[(4-{[2-(aminocarbonyl)-3-fluorophenyl]amino}-1H-pyrrolo[2,3-d]pyrimidin-2-yl)amino]-N,N-dimethyl-5-(methyloxy)-2,3-dihydro-1H-indole-1-carboxamide]
18 | 1.26 to 3.98 nM | < 250 nM | 250 to 1000 nM | 5.01 to 200 nM | COc1cc2c(cc1Nc1nc(Nc3cccc(F)c3C(N)=O)c3cc[nH]c3n1)N(C(=O)[C@@H]1CCCN1C)CC2 [Example 147, 2-fluoro-6-[(2-{[5-(methyloxy)-1-(1-methyl-L-prolyl)-2,3-dihydro-1H-indol-6-yl]amino}-1H-pyrrolo[2,3-d]pyrimidin-4-yl)amino]benzamide]
19 | 5.01 to 158 nM | 250 to 1000 nM | > 1000 nM | 5.01 to 200 nM | COCC(=O)N1CCc2cc(OC)c(Nc3nc(Nc4cccc(F)c4C(N)=O)c4cc[nH]c4n3)cc21 [Example 149, 2-fluoro-6-{[2-({5-(methyloxy)-1-[(methyloxy)acetyl]-2,3-dihydro-1H-indol-6-yl}amino)-1H-pyrrolo[2,3-d]pyrimidin-4-yl]amino}benzamide]
20 | 5.01 to 158 nM | 250 to 1000 nM | > 1000 nM | 5.01 to 200 nM | CNC(=O)c1c(F)cccc1Nc1nc(Nc2cc3c(cc2OC)CCN3C(=O)COC)nc2[nH]ccc12 [Example 150, 2-fluoro-N-methyl-6-{[2-({5-(methyloxy)-1-[(methyloxy)acetyl]-2,3-dihydro-1H-indol-6-yl}amino)-1H-pyrrolo[2,3-d]pyrimidin-4-yl]amino}benzamide]
21 | 5.01 to 158 nM | 250 to 1000 nM | > 1000 nM | 5.01 to 200 nM | CCN(C)CC(=O)N1CCc2cc(OC)c(Nc3nc(Nc4cccc(F)c4C(=O)NC)c4cc[nH]c4n3)cc21 [Example 165, 2-[(2-{[1-(N-ethyl-N-methylglycyl)-5-(methyloxy)-2,3-dihydro-1H-indol-6-yl]amino}-1H-pyrrolo[2,3-d]pyrimidin-4-yl)amino]-6-fluoro-N-methylbenzamide]
22 | 0.251 to 1 nM | < 250 nM | < 250 nM | 0.251 to 1 nM | CCCN(C)CC(=O)N1CCc2cc(OC)c(Nc3nc(Nc4cccc(F)c4C(N)=O)c4cc[nH]c4n3)cc21 [Example 168, 2-fluoro-6-[(2-{[5-(methyloxy)-1-(N-methyl-N-propylglycyl)-2,3-dihydro-1H-indol-6-yl]amino}-1H-pyrrolo[2,3-d]pyrimidin-4-yl)amino]benzamide]
